Experimental data: PubChem BioAssay (NCI)
Where “and” joins values, the source holds several entries; their conditions need not be identical. Identical values can stand only once.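 1) Cells in 96-well plates. 2) Compound, 48 h, 5 concentrations. 3) Linear interpolation between surrounding doses. 4) Unreached endpoint = highest concentration. GI50 marks 50% less growth. TGI marks complete inhibition of growth.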

Tests used:
Assay in all cases: NCI-60 cell line screen, 48 h
A498 renal = tested on: A498 renal
K-562 leukemia = tested on: K-562 leukemia
SW-620 colon = tested on: SW-620 colon
NCI/ADR-RES ovarian = tested on: NCI/ADR-RES ovarian
SK-MEL-5 melanoma = tested on: SK-MEL-5 melanoma
CAKI-1 renal = tested on: CAKI-1 renal
UACC-62 melanoma = tested on: UACC-62 melanoma
HOP-92 NSCLC = tested on: HOP-92 NSCLC
SN12C renal = tested on: SN12C renal
SF-539 CNS = tested on: SF-539 CNS

Structure (SMILES) | GI50 (A498 renal) | TGI (A498 renal) | GI50 (K-562 leukemia) | TGI (K-562 leukemia) | GI50 (SW-620 colon) | TGI (SW-620 colon) | GI50 (NCI/ADR-RES ovarian) | TGI (NCI/ADR-RES ovarian) | GI50 (SK-MEL-5 melanoma) | TGI (SK-MEL-5 melanoma) | GI50 (CAKI-1 renal) | TGI (CAKI-1 renal) [µM] | GI50 (UACC-62 melanoma) [µM] | TGI (UACC-62 melanoma) [µM] | GI50 (HOP-92 NSCLC) | TGI (HOP-92 NSCLC) | GI50 (SN12C renal) | TGI (SN12C renal) | GI50 (SF-539 CNS) | TGI (SF-539 CNS)
CNC(=O)c1cc(Oc2ccc(NC(=O)Nc3ccc(Cl)c(C(F)(F)F)c3)c(F)c2)ccn1 | 2.75 µM and 1.82 µM | 7.25 µM and 5.73 µM | 1.21 µM and 1.81 µM | 7.13 µM and > 10 µM | 2.23 µM and 2.47 µM | 14.9 µM and > 10 µM | 2.67 µM and 2.44 µM | 9.81 µM and > 10 µM | 1.5 µM and 1.35 µM | 2.94 µM and 3.16 µM | 2.95 µM | > 30.4 | 0.98 | 4.73 | 0.822 µM and 0.74 µM | 5.55 µM and 5.15 µM | 2.35 µM and 2.24 µM | 12.1 µM and > 10 µM | 2.15 µM and 1.45 µM | 10.7 µM and > 10 µM
COCc1c(-c2cc3cc(C)cc(OC)c3s2)c2c(N)ncnn2c1CN1CCNC(=O)C1 | 0.0102 µM | 0.0803 µM |  |  | 3.5 µM | > 100 µM | 24.3 µM | > 100 µM | 6.16 µM | 18.6 µM | 4.88 µM | 44.2 | 4.08 | 23.5 | 1.29 µM | 5.92 µM | 4.02 µM | 67.1 µM | 2.31 µM | 14.4 µM
CCN(Cc1ccccc1)C1CCN(Cc2cc(Br)ccc2O)CC1 | 9.29 µM | > 100 µM | 26.6 µM | > 100 µM | 27.2 µM | > 100 µM | 31.9 µM | > 100 µM | 15 µM | 28.9 µM | 57.9 µM | > 100 | 26.6 | > 100 | 10.4 µM | > 100 µM | 42.9 µM | > 100 µM | 36.7 µM | > 100 µM
CCOC(=O)Oc1cc2c(c(OC)c1OC)-c1ccc(OC)c(=O)cc1C(NC(C)=O)CC2 (stereo not drawn) |  | 3.38 µM |  | > 81.3 µM |  | > 100 µM |  | > 57.9 µM |  | 0.14 µM |  | > 100 |  | 25.2 |  | 28.7 µM |  | > 100 µM |  | 0.232 µM
COc1ccc(/C(COc2ccc3oc(-c4ccccc4)cc(=O)c3c2)=N\O)cc1 |  |  |  | > 33.3 µM | 0.382 µM | > 50 µM | 0.11 µM | 5.51 µM | 0.93 µM | 7.98 µM | 0.0618 µM | 24.7 | 0.0338 | 2.22 | > 31.2 µM | > 50 µM | 0.231 µM | 4.54 µM | 1.25 µM | 2.72 µM
CCCCCCCCCCCCCCCCCCn1cc[n+](C)c1 | 1.07 µM | 3.09 µM | 0.385 µM and 0.312 µM | > 100 µM | 0.624 µM | 1.96 µM | 1.58 µM | 5.47 µM |  |  |  |  | 1.04 | 2.3 | 0.35 µM | 2.62 µM | 1.07 µM and 0.826 µM | 2.47 µM and 2.3 µM | 1.06 µM | 2.4 µM
COc1ccc(Cc2coc3ccccc3c2=O)cc1OC |  |  |  | > 100 µM |  | > 100 µM |  | > 100 µM |  | 67.8 µM |  | 49.5 |  | > 100 |  | > 100 µM |  | > 100 µM |  | > 100 µM
Cc1cccc2nc3ccccc3c(Nc3ccc(NS(C)(=O)=O)cc3)c12 | 3.81 µM | 19.4 µM | 5.62 µM | 26.8 µM | 4.27 µM | 20.3 µM | 15.8 µM | 48.8 µM | 4.91 µM | 17.5 µM | 3.63 µM | 19.9 |  |  | 2.17 µM | 11.1 µM | 3.55 µM | 15.4 µM | 10.3 µM | 22.8 µM
C=C/C=C/[C@@H](O)CC(=C)C[C@H]1OC2[C@H](C)[C@@H](OC(=O)C[C@H]3C[C@H](OC(C)=O)C[C@@]4(C[C@@](C)(O)C[C@H](CC(=C)[C@@H](C)[C@H](OC(C)=O)[C@H](C)C(=O)C[C@@H]5C[C@H](OC)CC6(C[C@@H](O)C[C@H](/C=C\CCC[C@H]7O[C@](O)(C=C[C@H]7C)[C@H]2O)O6)O5)O4)O3)[C@@H]1O | 0.000388 µM and 0.0025 µM | 0.00544 µM |  | > 25 µM | 0.00123 µM and 0.0025 µM | > 25 µM |  | 0.164 µM | 0.000327 µM and 0.0025 µM | 0.00571 µM and 0.00327 µM | 0.00538 µM and 0.0025 µM |  |  |  | 0.0227 µM and 0.0025 µM | 15.1 µM | 0.000339 µM and 0.0025 µM |  | < 0.0025 µM | < 0.0025 µM
Nc1ccc(C2=CC(c3ccc(Cl)cc3)N3C=CSC3=N2)cc1 (stereo not drawn) | 6.17 µM | 23.8 µM |  |  | 2.07 µM | 4.51 µM | 7.89 µM | > 100 µM | 5.67 µM | 19.2 µM | 23.1 µM | > 100 | 4.4 | 18.1 | 17.7 µM | 72.4 µM | 6.4 µM | 26.9 µM | 1.84 µM | 3.85 µM
COc1ccc(-c2nc(-c3ccc(C)cc3)cn3ccnc23)cc1 |  |  | 0.815 µM | 3.92 µM | 2.8 µM | > 50 µM | 2.16 µM | > 50 µM | 1.68 µM | 5.2 µM | 4.78 µM | > 50 | 4.39 | > 50 | 16.2 µM | > 50 µM | 6.12 µM | > 50 µM | 5.73 µM | 31 µM
O=C(CCCN1CCC(O)(c2ccc(Cl)cc2)CC1)c1ccc(F)cc1 |  |  |  | > 100 µM |  | 39.6 µM |  | 88.8 µM |  | 29.7 µM |  | 23.4 |  | 21.4 |  | > 100 µM |  | > 100 µM |  | 60.3 µM
NC(=O)c1cc([N+](=O)[O-])c(Cl)c([N+](=O)[O-])c1Cl | 1.9 µM | 4.58 µM |  |  | 0.291 µM | 1.07 µM | 2.01 µM | 4.93 µM | 1.71 µM | 3.11 µM | 1.84 µM | 3.72 | 1.39 | 2.85 | 1.84 µM | 3.45 µM | 1.75 µM | 3.27 µM | 1.99 µM | 3.79 µM
CC(C)(C)c1ccc(Oc2ccc(N)cn2)cc1 | 11.7 µM | > 100 µM | 30.1 µM | > 100 µM | > 100 µM | > 100 µM | 51.6 µM | > 100 µM | 25.8 µM | 79.2 µM | 21 µM | > 100 | 61.3 | > 100 |  |  | 4.64 µM | > 100 µM | 18.8 µM | > 100 µM
